Reference: US11135234B2, “Effective aminoglycoside antibiotic for multidrug-resistant bacteria” (MICROBIAL CHEMISTRY RESEARCH FOUNDATION, priority 2015, dated 2021)
Converted amounts (≈) assume the structure as drawn.

Assays:
S. marcescens TH-0447 = test: MIC, agar plate dilution method, S. marcescens TH-0447; type: cell-based, Serratia marcescens; settings: for minimal inhibitory concentration (MIC): S. marcescens TH-0447, AMK-resistant
Protocol: (§1) As for the representative compounds of a new aminoglycoside antibiotic of the present invention described in Examples, the minimal inhibitory concentration (MIC, μg/mL) was measured for various assay strains of bacteria using an agar plate dilution method in accordance with the method described in the Japan Society of Chemotherapy.

P. aeruginosa MSC17707 = test: MIC, agar plate dilution method, P. aeruginosa MSC17707; type: cell-based, Pseudomonas aeruginosa; settings: for minimal inhibitory concentration (MIC): P. aeruginosa MSC17707, AMK-resistant
Protocol: as §1

P. aeruginosa PAO1/GN315 = test: MIC, agar plate dilution method, P. aeruginosa PAO1/GN315; type: cell-based, Pseudomonas aeruginosa; settings: for minimal inhibitory concentration (MIC): P. aeruginosa PAO1/GN315, AMK-resistant
Protocol: as §1

S. aureus RN4220 = test: MIC, agar plate dilution method, S. aureus RN4220; type: cell-based, Staphylococcus aureus; settings: for minimal inhibitory concentration (MIC): S. aureus RN4220, Sensitive bacterium
Protocol: as §1

[1] = test system: A. baumannii ATCC BAA-1710; test: MIC, agar plate dilution method, A. baumannii ATCC BAA-1710; type: cell-based, Acinetobacter baumannii; settings: for minimal inhibitory concentration (MIC): A. baumannii ATCC BAA-1710, MDRA
Protocol: as §1

[2] = test system: K. pneumoniae ATCC BAA-1705; test: MIC, agar plate dilution method, K. pneumoniae ATCC BAA-1705; type: cell-based, Klebsiella pneumoniae; settings: for minimal inhibitory concentration (MIC): K. pneumoniae ATCC BAA-1705, KPC-producing strain
Protocol: as §1

S. aureus MF490 = test: MIC, agar plate dilution method, S. aureus MF490; type: cell-based, Staphylococcus aureus; settings: for minimal inhibitory concentration (MIC): S. aureus MF490, MRSA
Protocol: as §1

E. faecium ATCC19434 = test: MIC, agar plate dilution method, E. faecium ATCC19434; type: cell-based, Enterococcus faecium; settings: for minimal inhibitory concentration (MIC): E. faecium ATCC19434
Protocol: as §1

S. aureus RN4220/pMS520 = test: MIC, agar plate dilution method, S. aureus RN4220/pMS520; type: cell-based, Staphylococcus aureus; settings: for minimal inhibitory concentration (MIC): S. aureus RN4220/pMS520, MRSA
Protocol: as §1

S. marcescens GN6944 = test: MIC, agar plate dilution method, S. marcescens GN6944; type: cell-based, Serratia marcescens; settings: S. marcescens GN6944, GM-resistant
Protocol: as §1

E. coli JM109/pMW218 = test: MIC, agar plate dilution method, E. coli JM109/pMW218; type: cell-based, Escherichia coli; settings: for minimal inhibitory concentration (MIC): E. coli JM109/pMW218, Sensitive bacterium
Protocol: as §1

P. aeruginosa MSC01035 = test: MIC, agar plate dilution method, P. aeruginosa MSC01035; type: cell-based, Pseudomonas aeruginosa; settings: P. aeruginosa MSC01035, ABK-resistant
Protocol: as §1

P. aeruginosa PAO1 = test: MIC, agar plate dilution method, P. aeruginosa PAO1; type: cell-based, Pseudomonas aeruginosa; settings: for minimal inhibitory concentration (MIC): P. aeruginosa PAO1, Sensitive bacterium
Protocol: as §1

[3] = test system: K. pneumoniae ATCC BAA-2146; test: MIC, agar plate dilution method, K. pneumoniae ATCC BAA-2146; type: cell-based, Klebsiella pneumoniae; settings: for minimal inhibitory concentration (MIC): K. pneumoniae ATCC BAA-2146, NDM-producing strain
Protocol: as §1

Structure (SMILES)	minimal inhibitory concentration (MIC) (S. marcescens TH-0447) [µg/mL]	minimal inhibitory concentration (MIC) (P. aeruginosa MSC17707) [µg/mL]	minimal inhibitory concentration (MIC) (P. aeruginosa PAO1/GN315) [µg/mL]	minimal inhibitory concentration (MIC) (S. aureus RN4220) [µg/mL]	minimal inhibitory concentration (MIC) [1] [µg/mL]	minimal inhibitory concentration (MIC) [2] [µg/mL]	minimal inhibitory concentration (MIC) (S. aureus MF490) [µg/mL]	minimal inhibitory concentration (MIC) (E. faecium ATCC19434) [µg/mL]	minimal inhibitory concentration (MIC) (S. aureus RN4220/pMS520) [µg/mL]	minimal inhibitory concentration (MIC) (S. marcescens GN6944) [µg/mL]	minimal inhibitory concentration (MIC) (E. coli JM109/pMW218) [µg/mL]	minimal inhibitory concentration (MIC) (P. aeruginosa MSC01035) [µg/mL]	minimal inhibitory concentration (MIC) (P. aeruginosa PAO1) [µg/mL]	minimal inhibitory concentration (MIC) [3] [µg/mL]	also measured
CNC1C(OC2OC(CO)C(N)C(O)C2O)OC2CC(N)C(OC3C(N)CC(N)C(O)C3O)OC2C1O (stereo not drawn) [Compound B5, 5-epiapramycin]	8 (≈ 14.8 µM)	4 (≈ 7.41 µM)	4 (≈ 7.41 µM)	4 (≈ 7.41 µM)	8 (≈ 14.8 µM)	1 (≈ 1.85 µM)	8 (≈ 14.8 µM)	16 (≈ 29.7 µM)	2 (≈ 3.71 µM)	8 (≈ 14.8 µM)	1 (≈ 1.85 µM)	4 (≈ 7.41 µM)	4 (≈ 7.41 µM)	1 (≈ 1.85 µM)	
CNC1C(OC2OC(CO)C(N)C(O)C2O)OC2CC(N)C(OC3C(N)CC(N)C(O)C3F)OC2C1O (stereo not drawn) [Compound B7, 5-deoxy-5-epi-5-fluoroapramycin]	16 (≈ 29.5 µM)	8 (≈ 14.8 µM)	8 (≈ 14.8 µM)	4 (≈ 7.39 µM)	8 (≈ 14.8 µM)	2 (≈ 3.69 µM)	16 (≈ 29.5 µM)	32 (≈ 59.1 µM)	4 (≈ 7.39 µM)	8 (≈ 14.8 µM)	1 (≈ 1.85 µM)	8 (≈ 14.8 µM)	4 (≈ 7.39 µM)	2 (≈ 3.69 µM)	
CN[C@@H]1[C@@H](O[C@H]2O[C@H](CO)[C@@H](N)[C@H](O)[C@H]2O)O[C@H]2C[C@@H](N)[C@@H](O[C@@H]3[C@@H](N)C[C@@H](N)C[C@@H]3O)O[C@@H]2[C@@H]1O [Compound C6, 6-deoxy-5-epiapramycin]	8 (≈ 15.3 µM)	8 (≈ 15.3 µM)	4 (≈ 7.64 µM)	4 (≈ 7.64 µM)	8 (≈ 15.3 µM)	2 (≈ 3.82 µM)	8 (≈ 15.3 µM)	16 (≈ 30.6 µM)	4 (≈ 7.64 µM)	4 (≈ 7.64 µM)	1 (≈ 1.91 µM)	8 (≈ 15.3 µM)	4 (≈ 7.64 µM)	1 (≈ 1.91 µM)	
CNC1C(OC2OC(CO)C(N)C(O)C2O)OC2CC(N)C(OC3C(N)CC(N)CC3F)OC2C1O (stereo not drawn) [Compound C8, 5,6-dideoxy-5-fluoroapramycin]	8 (≈ 15.2 µM)	4 (≈ 7.61 µM)	4 (≈ 7.61 µM)	2 (≈ 3.81 µM)	8 (≈ 15.2 µM)	1 (≈ 1.9 µM)	8 (≈ 15.2 µM)	16 (≈ 30.4 µM)	2 (≈ 3.81 µM)	4 (≈ 7.61 µM)	1 (≈ 1.9 µM)	8 (≈ 15.2 µM)	4 (≈ 7.61 µM)	1 (≈ 1.9 µM)	
CNC1C(OC2OC(CO)C(N)C(O)C2O)OC2CC(N)C(OC3C(N)CC(N)CC3N)OC2C1O (stereo not drawn) [Compound C11, 5-amino-5,6-dideoxyapramycin]	16 (≈ 30.6 µM)	16 (≈ 30.6 µM)	16 (≈ 30.6 µM)	8 (≈ 15.3 µM)	16 (≈ 30.6 µM)	4 (≈ 7.65 µM)	16 (≈ 30.6 µM)	32 (≈ 61.2 µM)	8 (≈ 15.3 µM)	16 (≈ 30.6 µM)	2 (≈ 3.83 µM)	32 (≈ 61.2 µM)	16 (≈ 30.6 µM)	4 (≈ 7.65 µM)	
CNC1C(OC2OC(CO)C(N)C(O)C2O)OC2CC(N)C(OC3C(N)CC(N)C(O)C3N)OC2C1O (stereo not drawn) [Compound D2, 5-amino-5-deoxy-5-epiapramycin]	8 (≈ 14.9 µM)	8 (≈ 14.9 µM)	4 (≈ 7.43 µM)	4 (≈ 7.43 µM)	8 (≈ 14.9 µM)	2 (≈ 3.71 µM)	8 (≈ 14.9 µM)	32 (≈ 59.4 µM)	4 (≈ 7.43 µM)	4 (≈ 7.43 µM)	2 (≈ 3.71 µM)	4 (≈ 7.43 µM)	4 (≈ 7.43 µM)	2 (≈ 3.71 µM)	
CN[C@@H]1[C@@H](O[C@H]2O[C@H](CO)[C@@H](N)[C@H](O)[C@H]2O)O[C@H]2C[C@@H](N)[C@@H](O[C@H]3[C@H](N)[C@@H](O)[C@H](N)C[C@@H]3N)O[C@@H]2[C@@H]1O [Compound E3, 5-amino-5-deoxyapramycin]	16 (≈ 29.7 µM)	16 (≈ 29.7 µM)	16 (≈ 29.7 µM)	8 (≈ 14.9 µM)	16 (≈ 29.7 µM)	4 (≈ 7.43 µM)	16 (≈ 29.7 µM)	64 (≈ 119 µM)	8 (≈ 14.9 µM)	16 (≈ 29.7 µM)	4 (≈ 7.43 µM)	16 (≈ 29.7 µM)	16 (≈ 29.7 µM)	4 (≈ 7.43 µM)	
CN[C@@H]1[C@@H](O[C@H]2O[C@H](CO)[C@@H](N)[C@H](O)[C@H]2O)O[C@H]2C[C@@H](N)[C@@H](O[C@H]3[C@@H](F)[C@H](N)[C@H](N)C[C@@H]3N)O[C@@H]2[C@@H]1O [Compound F3, 6-amino-5,6-dideoxy-5,6-diepi-5-fluoroapramycin]	16 (≈ 29.6 µM)	16 (≈ 29.6 µM)	16 (≈ 29.6 µM)	8 (≈ 14.8 µM)	16 (≈ 29.6 µM)	4 (≈ 7.4 µM)	32 (≈ 59.2 µM)	64 (≈ 118 µM)	8 (≈ 14.8 µM)	16 (≈ 29.6 µM)	8 (≈ 14.8 µM)	32 (≈ 59.2 µM)	16 (≈ 29.6 µM)	4 (≈ 7.4 µM)	
CNC1C(O[C@H]2OC(CO)[C@@H](N)[C@H](O)C2N)O[C@H]2CC(N)[C@@H](O[C@@H]3C(N)C[C@@H](N)C(O)[C@H]3O)OC2C1O (stereo partly drawn) [Compound G7, 2″-amino-2″-deoxy-2″,3″-diepiapramycin]															MIC (S. marcescens TH-0447; Serratia marcescens, TH0447, S. marcescens TH-0447, AMK-resistant, read-out: minimal inhibitory concentration (MIC)): 8 µg/mL (≈ 14.9 µM); MIC (P. aeruginosa MSC17707; Pseudomonas aeruginosa, MSC17707, P. aeruginosa MSC17707, AMK-resistant, read-out: minimal inhibitory concentration (MIC)): 8 µg/mL (≈ 14.9 µM); MIC (P. aeruginosa PAO1/GN315; Pseudomonas aeruginosa, read-out: minimal inhibitory concentration (MIC), P. aeruginosa PAO1/GN315, AMK-resistant): 8 µg/mL (≈ 14.9 µM); MIC (S. aureus RN4220; Staphylococcus aureus, RN4220, S. aureus RN4220, Sensitive bacterium, read-out: minimal inhibitory concentration (MIC)): 4 µg/mL (≈ 7.43 µM); MIC ([1]; Acinetobacter baumannii, ATCCBAA1710, A. baumannii ATCC BAA-1710, MDRA, read-out: minimal inhibitory concentration (MIC)): 8 µg/mL (≈ 14.9 µM); MIC ([2]; Klebsiella pneumoniae, ATCCBAA1705, K. pneumoniae ATCC BAA-1705, KPC-producing strain, read-out: minimal inhibitory concentration (MIC)): 2 µg/mL (≈ 3.71 µM); MIC (S. aureus MF490; Staphylococcus aureus, MRSA, read-out: minimal inhibitory concentration (MIC)): 16 µg/mL (≈ 29.7 µM); MIC (E. faecium ATCC19434; Enterococcus faecium, ATCC19434, E. faecium ATCC19434, read-out: minimal inhibitory concentration (MIC)): 16 µg/mL (≈ 29.7 µM); MIC (S. aureus RN4220/pMS520; Staphylococcus aureus, MRSA, read-out: minimal inhibitory concentration (MIC), S. aureus RN4220/pMS520, MRSA): 8 µg/mL (≈ 14.9 µM); MIC (S. marcescens GN6944; Serratia marcescens, read-out: minimal inhibitory concentration (MIC)): 8 µg/mL (≈ 14.9 µM); MIC (E. coli JM109/pMW218; Escherichia coli, JM109/PMW218, E. coli JM109/pMW218, Sensitive bacterium, read-out: minimal inhibitory concentration (MIC)): 1 µg/mL (≈ 1.86 µM); MIC (P. aeruginosa MSC01035; Pseudomonas aeruginosa, read-out: minimal inhibitory concentration (MIC)): 16 µg/mL (≈ 29.7 µM); MIC (P. aeruginosa PAO1; Pseudomonas aeruginosa, PAO1, P. aeruginosa PAO1, Sensitive bacterium, read-out: minimal inhibitory concentration (MIC)): 8 µg/mL (≈ 14.9 µM); MIC ([3]; Klebsiella pneumoniae, ATCCBAA2146, K. pneumoniae ATCC BAA-2146, NDM-producing strain, read-out: minimal inhibitory concentration (MIC)): 4 µg/mL (≈ 7.43 µM)
